In ChEMBL document CHEMBL1201862, “PubChem BioAssay data set” (2004):
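Assay format: 96-well plates, 48-hour exposure. At the GI50, growth is halved.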 Activity calls are given as the source filed them. No stated cut-off is given here; in the data, active = GI50 up to about 1.1 µM and inactive = higher.

Columns and labels:
Assay in all cases: growth of human tumour cells (NCI), 48 h
[1] = test system: HCC 2998
[2] = test system: EKVX
[3] = test system: MDA-MB-435
[4] = test system: A549
[5] = test system: HCT-116
[6] = test system: UACC-257
[7] = test system: CAKI-1
[8] = test system: M14
[9] = test system: Hs-578T
[10] = test system: IGROV-1
[11] = test system: SK-MEL-28
[12] = test system: SW-620
[13] = test system: OVCAR-3
[14] = test system: ACHN
[15] = test system: HOP-92
[16] = test system: SK-MEL-5
[17] = test system: PC-3
[18] = test system: NCI-H460
[19] = test system: SNB-75
[20] = test system: T47D

For `COc1ccc(SC(C)(SC)c2ccccn2)c(OC)n1` (stereo not drawn), the GI50 [1] was > 100 µM (inactive), the GI50 [2] was > 100 µM (inactive) and the GI50 [3] was > 100 µM (inactive). For the same compound, the GI50 [4] was 79.4 µM (inactive), the GI50 [5] was 48.3 µM (inactive) and the GI50 [6] was 67.3 µM (inactive). For the same compound, the GI50 [7] was > 100 µM (inactive), the GI50 [8] was > 100 µM (inactive) and the GI50 [9] was 91.2 µM (inactive). For the same compound, the GI50 [10] was > 100 µM (inactive), the GI50 [11] was > 100 µM (inactive) and the GI50 [12] was > 100 µM (inactive). For the same compound, the GI50 [13] was 52.8 µM (inactive), the GI50 [14] was > 100 µM (inactive) and the GI50 [15] was 70 µM (inactive). For the same compound, the GI50 [16] was 37.4 µM (inactive), the GI50 [17] was 76.2 µM (inactive) and the GI50 [18] was 73.1 µM (inactive).

With `COc1cccc(Cc2cc(=O)c3ccc(C)nc3[nH]2)c1` the GI50 [2] was > 100 µM (inactive), the GI50 [3] was > 100 µM (inactive) and the GI50 [4] was > 100 µM (inactive). For the same compound, the GI50 [5] was > 100 µM (inactive), the GI50 [6] was > 100 µM (inactive) and the GI50 [7] was > 100 µM (inactive). The GI50 [8] was > 100 µM (inactive), the GI50 [19] was 93.8 µM (inactive) and the GI50 [20] was > 100 µM (inactive). The GI50 [9] was 60.1 µM (inactive), the GI50 [10] was > 100 µM (inactive) and the GI50 [11] was > 100 µM (inactive). For the same compound, the GI50 [12] was > 100 µM (inactive), the GI50 [13] was > 100 µM (inactive) and the GI50 [15] was > 100 µM (inactive). The GI50 [16] was > 100 µM (inactive) and the GI50 [18] was > 100 µM (inactive).

`COc1ccc(N(C(=O)Nc2ccc(Cl)c(Cl)c2)C2c3cccn3C(=O)N2c2ccc(Cl)c(Cl)c2)cc1` (stereo not drawn) was tested, and the GI50 [1] was 56.5 µM (inactive), the GI50 [2] was 42.3 µM (inactive) and the GI50 [3] was 28.6 µM (inactive). The GI50 [4] was 80.5 µM (inactive), the GI50 [5] was 17.3 µM (inactive) and the GI50 [6] was > 100 µM (inactive). For the same compound, the GI50 [7] was 26.9 µM (inactive), the GI50 [8] was 19.1 µM (inactive) and the GI50 [9] was > 100 µM (inactive). The GI50 [10] was > 100 µM (inactive), the GI50 [11] was > 100 µM (inactive) and the GI50 [12] was > 100 µM (inactive). For the same compound, the GI50 [14] was > 100 µM (inactive), the GI50 [15] was 51.3 µM (inactive) and the GI50 [16] was 70.5 µM (inactive). The GI50 [17] was 60.4 µM (inactive) and the GI50 [18] was 24.9 µM (inactive).

With `C1CSCCSCCCSC2CCCCC2SC1` (stereo not drawn) the GI50 [1] was > 100 µM (inactive), the GI50 [2] was > 100 µM (inactive) and the GI50 [3] was > 100 µM (inactive). For the same compound, the GI50 [4] was > 100 µM (inactive), the GI50 [5] was > 100 µM (inactive) and the GI50 [6] was > 100 µM (inactive). The GI50 [8] was > 100 µM (inactive), the GI50 [19] was > 100 µM (inactive) and the GI50 [20] was > 100 µM (inactive). The GI50 [10] was > 100 µM (inactive), the GI50 [11] was > 100 µM (inactive) and the GI50 [12] was > 100 µM (inactive). The GI50 [13] was > 100 µM (inactive), the GI50 [15] was 34.4 µM (inactive) and the GI50 [16] was 43.2 µM (inactive). For the same compound, the GI50 [17] was 68.2 µM (inactive) and the GI50 [18] was > 100 µM (inactive).

With `O=C(NCCC1CNc2ccccc21)OCc1ccccc1` (stereo not drawn) the GI50 [1] was > 100 µM (inactive), the GI50 [2] was > 100 µM (inactive) and the GI50 [3] was > 100 µM (inactive). The GI50 [4] was > 100 µM (inactive), the GI50 [5] was > 100 µM (inactive) and the GI50 [6] was > 100 µM (inactive). For the same compound, the GI50 [7] was > 100 µM (inactive), the GI50 [8] was > 100 µM (inactive) and the GI50 [9] was > 100 µM (inactive). For the same compound, the GI50 [10] was > 100 µM (inactive), the GI50 [11] was > 100 µM (inactive) and the GI50 [12] was > 100 µM (inactive). For the same compound, the GI50 [13] was > 100 µM (inactive), the GI50 [14] was > 100 µM (inactive) and the GI50 [15] was > 100 µM (inactive). For the same compound, the GI50 [16] was > 100 µM (inactive), the GI50 [17] was > 100 µM (inactive) and the GI50 [18] was > 100 µM (inactive).

With `Cn1c(=O)oc2cc(C(O)CN3CCN(Cc4ccccn4)CC3)c(Cl)cc21` (stereo not drawn) the GI50 [1] was > 100 µM (inactive), the GI50 [2] was > 100 µM (inactive) and the GI50 [3] was > 100 µM (inactive). The GI50 [4] was > 100 µM (inactive), the GI50 [5] was > 100 µM (inactive) and the GI50 [6] was > 100 µM (inactive). For the same compound, the GI50 [7] was > 100 µM (inactive), the GI50 [8] was > 100 µM (inactive) and the GI50 [19] was 77.3 µM (inactive). For the same compound, the GI50 [20] was > 100 µM (inactive), the GI50 [10] was > 100 µM (inactive) and the GI50 [11] was > 100 µM (inactive). For the same compound, the GI50 [12] was > 100 µM (inactive), the GI50 [13] was > 100 µM (inactive) and the GI50 [14] was > 100 µM (inactive). The GI50 [15] was > 100 µM (inactive), the GI50 [17] was > 100 µM (inactive) and the GI50 [18] was > 100 µM (inactive).

For `O=c1[nH]c(=O)n(C2CC(O)C(COP(=O)(O)OC3CC(n4cc(F)c(=O)[nH]c4=O)OC3COP(=O)(O)OC3CC(n4cc(F)c(=O)[nH]c4=O)OC3COP(=O)(O)OC3CC(n4cc(F)c(=O)[nH]c4=O)OC3COP(=O)(O)OC3CC(n4cc(F)c(=O)[nH]c4=O)OC3COP(=O)(O)OC3CC(n4cc(F)c(=O)[nH]c4=O)OC3COP(=O)(O)OC3CC(n4cc(F)c(=O)[nH]c4=O)OC3COP(=O)(O)OC3CC(n4cc(F)c(=O)[nH]c4=O)OC3COP(=O)(O)OC3CC(n4cc(F)c(=O)[nH]c4=O)OC3COP(=O)(O)OC3CC(n4cc(F)c(=O)[nH]c4=O)OC3CO)O2)cc1F` (stereo not drawn), the GI50 [1] was 0.0234 µM (active), the GI50 [3] was 0.422 µM (active) and the GI50 [4] was < 0.005 µM (active). The GI50 [5] was 0.0109 µM (active), the GI50 [6] was 0.578 µM (active) and the GI50 [7] was < 0.005 µM (active). The GI50 [8] was < 0.005 µM (active), the GI50 [19] was 0.353 µM (active) and the GI50 [20] was 0.0473 µM (active). The GI50 [10] was 0.0435 µM (active), the GI50 [11] was 0.286 µM (active) and the GI50 [12] was > 50 µM (inactive). For the same compound, the GI50 [14] was < 0.005 µM (active), the GI50 [15] was 0.0202 µM (active) and the GI50 [16] was 0.00824 µM (active). For the same compound, the GI50 [17] was 0.0767 µM (active) and the GI50 [18] was < 0.005 µM (active).

In the case of `CC(C)(C)c1ccccc1N1C(=O)c2ccc3c4c(ccc(c24)C1=O)N(c1ccccc1C(C)(C)C)C3=O`, the GI50 [1] is reported as > 100 µM (inactive), the GI50 [2] is reported as 14.8 µM (inactive) and the GI50 [3] is reported as > 100 µM (inactive). The GI50 [4] was > 100 µM (inactive), the GI50 [5] was > 100 µM (inactive) and the GI50 [6] was > 100 µM (inactive). The GI50 [7] was > 100 µM (inactive), the GI50 [8] was > 100 µM (inactive) and the GI50 [9] was 3.03 µM (inactive). The GI50 [10] was > 100 µM (inactive), the GI50 [11] was > 100 µM (inactive) and the GI50 [12] was > 100 µM (inactive). The GI50 [13] was > 100 µM (inactive), the GI50 [14] was > 100 µM (inactive) and the GI50 [15] was 6.43 µM (inactive). For the same compound, the GI50 [16] was > 100 µM (inactive), the GI50 [17] was 20 µM (inactive) and the GI50 [18] was > 100 µM (inactive).

`O=C(O)c1ccccc1CC1Cc2cc3c(cc2C1)CCC3` was tested, and the GI50 [1] was > 100 µM (inactive), the GI50 [2] was > 100 µM (inactive) and the GI50 [3] was > 100 µM (inactive). For the same compound, the GI50 [4] was 95.1 µM (inactive), the GI50 [5] was > 100 µM (inactive) and the GI50 [6] was > 100 µM (inactive). The GI50 [8] was > 100 µM (inactive), the GI50 [19] was > 100 µM (inactive) and the GI50 [20] was 33 µM (inactive). The GI50 [9] was > 100 µM (inactive), the GI50 [10] was > 100 µM (inactive) and the GI50 [11] was > 100 µM (inactive). For the same compound, the GI50 [12] was > 100 µM (inactive), the GI50 [13] was > 100 µM (inactive) and the GI50 [14] was > 100 µM (inactive). The GI50 [16] was > 100 µM (inactive) and the GI50 [18] was > 100 µM (inactive).

With `COc1cccc(-c2cc(O)c3cc(NC(C)=O)ccc3n2)c1` the GI50 [1] was > 100 µM (inactive), the GI50 [2] was 53 µM (inactive) and the GI50 [3] was 3.8 µM (inactive). For the same compound, the GI50 [4] was 61.7 µM (inactive), the GI50 [6] was > 100 µM (inactive) and the GI50 [7] was 62.1 µM (inactive). For the same compound, the GI50 [8] was 27.2 µM (inactive), the GI50 [9] was 2.63 µM (inactive) and the GI50 [10] was 27.2 µM (inactive). For the same compound, the GI50 [11] was 33.2 µM (inactive), the GI50 [12] was 47.8 µM (inactive) and the GI50 [14] was > 100 µM (inactive). For the same compound, the GI50 [15] was 8.17 µM (inactive), the GI50 [16] was 14.6 µM (inactive) and the GI50 [17] was 23.7 µM (inactive). For the same compound, the GI50 [18] was 33 µM (inactive).

`COc1cc(C(=O)O[C@H]2CCC3CCC2N3C)cc(OC)c1OC` (stereo partly drawn) was tested, and the GI50 [1] was > 100 µM (inactive), the GI50 [2] was > 100 µM (inactive) and the GI50 [3] was > 100 µM (inactive). The GI50 [4] was > 100 µM (inactive), the GI50 [5] was > 100 µM (inactive) and the GI50 [6] was > 100 µM (inactive). For the same compound, the GI50 [8] was > 100 µM (inactive), the GI50 [19] was 58.9 µM (inactive) and the GI50 [9] was > 100 µM (inactive). For the same compound, the GI50 [11] was > 100 µM (inactive), the GI50 [12] was > 100 µM (inactive) and the GI50 [14] was > 100 µM (inactive). For the same compound, the GI50 [15] was 34.4 µM (inactive), the GI50 [16] was > 100 µM (inactive) and the GI50 [18] was > 100 µM (inactive).
